Measured values as given in PubChem BioAssay (NCI).
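A five-concentration, 48-hour dose response in 96-well plates underlies each endpoint, interpolated linearly between surrounding concentrations. Here, GI50 denotes the concentration required for 50% inhibition of growth. TGI: total growth inhibition.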

System: HT29 colon
Experiment: DTP human tumour cell line panel, 48 h

| Structure (SMILES) | GI50 | TGI |
| --- | --- | --- |
| Nc1cc(NN=C(c2ccc(O)cc2)c2ccc(O)cc2)c([N+](=O)[O-])cc1[N+](=O)[O-] | 2.63 µM | 8.19 µM |
| O=CNc1ccc2c(c1)C(=O)c1ccccc1-2 |  | > 100 µM |
| O=C1C=CC(=O)c2nc3c(cc21)CCC3 |  | > 100 µM |
| Nc1c(C(=O)Nc2cccc(C(F)(F)F)c2)sc2nc3c(cc12)CCCCC3 | 7.06 µM | > 100 µM |
| Nc1ccc(C2=NNC(=O)Cc3cc4c(cc32)OCCO4)cc1Cl | 2.11 µM | > 50 µM |
| C=C(C)CCOC(c1ccccc1)(c1ccccc1)c1ccccc1 |  | 70.6 µM |
| COc1ccc(C)cc1-c1cc(Sc2ccccc2)c(-c2cc(C)ccc2OC)o1 |  | > 31.6 µM |
| COc1ccc2nc3cc(Cl)ccc3c(NCCNCC(C)O)c2c1 (centres undefined) | 0.691 µM | 3.03 µM |
| CCn1c(-c2nonc2N)nc2c(C#CC(C)(C)O)nc(OC[C@@H](N)c3ccccc3)cc21 | 4.9 µM | 9.53 µM |
| Cn1ccc2c3c(Oc4ccc(NC(N)=O)cc4)ccnc3ccc21 | > 100 µM | > 100 µM |
| CC1(C)OC1COc1c2occc2cc2ccc(=O)oc12 (centres undefined) |  | > 100 µM |
| CC(=O)OCCOCNC(=S)N/N=C(\C)c1cnccn1 |  | > 100 µM |
| CCCCCCCCCCCCC(O)c1ccc(C#CCCCCCCCCCO)o1 (centres undefined) | 69.9 µM | > 100 µM |
| Nc1n[nH]c2cc(F)c([C@@H]3Nc4ccc5[nH]ncc5c4[C@H]4C5CCC(C5)[C@@H]34)cc12 (some centres undefined) | 0.182 µM | > 50 µM |
| COc1ccc(CCN=C2NC(=O)/C(=C/c3ccc4ncccc4c3)S2)cc1 | > 25 µM | > 25 µM |
| O=C(Nc1ccccc1-c1nn(C(=S)Nc2ccccc2)c(=S)n(C(=S)Nc2ccccc2)c1=O)C(F)(F)F |  | > 78.9 µM |
| O=c1c(-c2ccccc2)c2oc(c1-c1ccccc1)CSCc1cccc(c1)CSC2 |  | > 100 µM |

System: KM12 colon
Experiment: DTP human tumour cell line panel, 48 h

| Structure (SMILES) | GI50 | TGI |
| --- | --- | --- |
| Nc1cc(NN=C(c2ccc(O)cc2)c2ccc(O)cc2)c([N+](=O)[O-])cc1[N+](=O)[O-] | 1.52 µM | 2.85 µM |
| O=CNc1ccc2c(c1)C(=O)c1ccccc1-2 |  | > 100 µM |
| O=C1C=CC(=O)c2nc3c(cc21)CCC3 |  | > 100 µM |
| Nc1c(C(=O)Nc2cccc(C(F)(F)F)c2)sc2nc3c(cc12)CCCCC3 | 5.33 µM | > 100 µM |
| Nc1ccc(C2=NNC(=O)Cc3cc4c(cc32)OCCO4)cc1Cl | 1.74 µM | > 50 µM |
| C=C(C)CCOC(c1ccccc1)(c1ccccc1)c1ccccc1 |  | > 100 µM |
| COc1ccc(C)cc1-c1cc(Sc2ccccc2)c(-c2cc(C)ccc2OC)o1 |  | > 31.6 µM |
| COc1ccc2nc3cc(Cl)ccc3c(NCCNCC(C)O)c2c1 (centres undefined) | 2.02 µM | 8.74 µM |
| CCn1c(-c2nonc2N)nc2c(C#CC(C)(C)O)nc(OC[C@@H](N)c3ccccc3)cc21 | 3.05 µM | 6.75 µM |
| Cn1ccc2c3c(Oc4ccc(NC(N)=O)cc4)ccnc3ccc21 | > 100 µM | > 100 µM |
| CC1(C)OC1COc1c2occc2cc2ccc(=O)oc12 (centres undefined) |  | > 100 µM |
| CC(=O)OCCOCNC(=S)N/N=C(\C)c1cnccn1 |  | > 100 µM |
| CCCCCCCCCCCCC(O)c1ccc(C#CCCCCCCCCCO)o1 (centres undefined) | 20.5 µM | 39.9 µM |
| Nc1n[nH]c2cc(F)c([C@@H]3Nc4ccc5[nH]ncc5c4[C@H]4C5CCC(C5)[C@@H]34)cc12 (some centres undefined) | 0.18 µM | 4.01 µM |
| COc1ccc(CCN=C2NC(=O)/C(=C/c3ccc4ncccc4c3)S2)cc1 | > 25 µM | > 25 µM |
| O=C(Nc1ccccc1-c1nn(C(=S)Nc2ccccc2)c(=S)n(C(=S)Nc2ccccc2)c1=O)C(F)(F)F |  | 52 µM |
| O=c1c(-c2ccccc2)c2oc(c1-c1ccccc1)CSCc1cccc(c1)CSC2 |  | > 100 µM |

System: LOX IMVI melanoma
Experiment: DTP human tumour cell line panel, 48 h

| Structure (SMILES) | GI50 | TGI |
| --- | --- | --- |
| Nc1cc(NN=C(c2ccc(O)cc2)c2ccc(O)cc2)c([N+](=O)[O-])cc1[N+](=O)[O-] | 1.65 µM | 3.1 µM |
| O=CNc1ccc2c(c1)C(=O)c1ccccc1-2 |  | > 100 µM |
| O=C1C=CC(=O)c2nc3c(cc21)CCC3 |  | 29.9 µM |
| Nc1c(C(=O)Nc2cccc(C(F)(F)F)c2)sc2nc3c(cc12)CCCCC3 | 3.59 µM | 58 µM |
| Nc1ccc(C2=NNC(=O)Cc3cc4c(cc32)OCCO4)cc1Cl | 2.95 µM | > 50 µM |
| C=C(C)CCOC(c1ccccc1)(c1ccccc1)c1ccccc1 |  | 79.2 µM |
| COc1ccc(C)cc1-c1cc(Sc2ccccc2)c(-c2cc(C)ccc2OC)o1 |  | > 100 µM |
| COc1ccc2nc3cc(Cl)ccc3c(NCCNCC(C)O)c2c1 (centres undefined) | 1.15 µM | 2.66 µM |
